The first experiment addresses T1, GCase (Homo sapiens, UniProt P04062).
T1 construct: endogenous in cells; host or cells: HeLa cells
T1 sequence (P04062 40-536): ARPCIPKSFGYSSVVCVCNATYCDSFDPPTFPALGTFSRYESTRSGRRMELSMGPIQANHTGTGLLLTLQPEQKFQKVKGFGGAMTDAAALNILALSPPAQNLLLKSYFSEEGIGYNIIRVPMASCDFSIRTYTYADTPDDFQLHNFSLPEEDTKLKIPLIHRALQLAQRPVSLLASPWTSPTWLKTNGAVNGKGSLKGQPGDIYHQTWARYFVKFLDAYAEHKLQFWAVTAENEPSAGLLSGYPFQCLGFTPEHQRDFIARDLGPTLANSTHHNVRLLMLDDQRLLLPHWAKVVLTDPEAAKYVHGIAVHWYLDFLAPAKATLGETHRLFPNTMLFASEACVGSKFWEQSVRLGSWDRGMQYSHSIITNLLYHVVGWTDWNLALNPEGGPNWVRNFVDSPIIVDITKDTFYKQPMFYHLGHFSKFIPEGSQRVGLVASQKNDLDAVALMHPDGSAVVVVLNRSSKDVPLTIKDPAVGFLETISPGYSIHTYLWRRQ
The experiment in a line: activation of GCase in a live cell PFB assay in HELA cells. The class given is cell-based. Particulars: EC50 given as range classes. How it is done: Exemplary compounds were evaluated for activation of GCase in a live cell PFB assay in HELA cells (essentially as described in Ysselstein et al., “LRRK2 kinase activity regulates lysosomal glucocerebrosidase in neurons derived from Parkinson's disease patients” Nature Communications (2019) 10:5570). […] EC50 ranges: A: <10 μM; B: >10-50 μM; C: >50-100 μM; D: >100 μM.
As a reminder, the EC50 is the concentration at which the effect is half-maximal. Compound `Cc1ccccc1C(=O)N1CC2(CCN(c3cnc4cnn(CC(F)F)c4n3)C2)C1` [Cmpd 384] returned an EC50 of less than 10 µM.

As for `Cc1ccc(S(=O)(=O)N2CC3(CCN(c4cnc5cnn(CC(F)F)c5n4)C3)C2)cc1` [Cmpd 385], the EC50 fell in the range of 10 to 50 µM.

Turning to `O=S(=O)(c1ccc(Cl)cc1)N1CC2(CCN(c3cnc4cnn(CC(F)F)c4n3)C2)C1` [Cmpd 386], the EC50 was 10 to 50 µM.

Compound `O=C(c1ccc(OC(F)F)cc1)N1CC2(CCN(c3cnc4cnn(CC(F)F)c4n3)C2)C1` [Cmpd 387] registered an EC50 of 10 to 50 µM.

Turning to `O=C(c1cccc(OC(F)(F)F)c1)N1CC2(CCN(c3cnc4cnn(CC(F)F)c4n3)C2)C1` [Cmpd 388], the EC50 is 10 to 50 µM.

Turning to `O=C(c1ccccc1OC(F)F)N1CC2(CCN(c3cnc4cnn(CC(F)F)c4n3)C2)C1` [Cmpd 389], the EC50 is less than 10 µM.

`O=C(c1ccccc1OC(F)(F)F)N1CC2(CCN(c3cnc4cnn(CC(F)F)c4n3)C2)C1` [Cmpd 390] yielded a concentration giving a half-maximal response (EC50) of less than 10 µM.

Turning to `COc1ccccc1C(=O)N1CC2(CCN(c3cnc4cnn(CC(F)F)c4n3)C2)C1` [Cmpd 391], the EC50 was less than 10 µM.

Take `O=C(c1ccccc1C(F)(F)F)N1CC2(CCN(c3cnc4cnn(CC(F)F)c4n3)C2)C1` [Cmpd 392]: the EC50 is less than 10 µM.

In turn, `O=S(=O)(c1ccccc1Cl)N1CC2(CCN(c3cnc4cnn(CC(F)F)c4n3)C2)C1` [Cmpd 393] showed an EC50 of 10 to 50 µM.

In turn, `Cc1ccccc1S(=O)(=O)N1CC2(CCN(c3cnc4cnn(CC(F)F)c4n3)C2)C1` [Cmpd 394] came in with an EC50 of 10 to 50 µM.

Turning to `O=S(=O)(c1ccccc1F)N1CC2(CCN(c3cnc4cnn(CC(F)F)c4n3)C2)C1` [Cmpd 395], the 50% effective concentration (EC50) is less than 10 µM.

`O=S(=O)(c1ccccc1C(F)(F)F)N1CC2(CCN(c3cnc4cnn(CC(F)F)c4n3)C2)C1` [Cmpd 396]: the EC50 was 10 to 50 µM.

In turn, `O=C1CC2(CCN(c3cnc4cnn(CC(F)F)c4n3)CC2)CN1Cc1ccc(F)cn1` [Cmpd 397] returned an EC50 of 10 to 50 µM.

The compound `Cc1cc(CN2CC3(CCN(c4cnc5cnn(CC(F)F)c5n4)CC3)CC2=O)no1` [Cmpd 398] gave an EC50 of 10 to 50 µM.

Consider `Cc1csc(CN2CC3(CCN(c4cnc5cnn(CC(F)F)c5n4)CC3)CC2=O)n1` [Cmpd 399], for which the EC50 was in the range of 10 to 50 µM.

Turning to `O=C1CC2(CCN(c3cnc4cnn(CC(F)F)c4n3)CC2)CN1Cc1ccc(Cl)cn1` [Cmpd 400], the EC50 fell in the range of 10 to 50 µM.

Compound `FC(F)Cn1ncc2ncc(N3CCC4(CN(c5cncc(Cl)c5)C4)C3)nc21` [Cmpd 401] displayed an EC50 of 10 to 50 µM.

Compound `Cc1nc(N2CC3(CCN(c4cnc5cnn(CC(F)F)c5n4)C3)C2)ncc1Cl` [Cmpd 402] came in with an EC50 of more than 100 µM.

The compound `FC(F)Cn1ncc2ncc(N3CCC4(CN(c5ccc(Cl)cn5)C4)C3)nc21` [Cmpd 403] displayed a 50% effective concentration (EC50) of 10 to 50 µM.

As to `Cc1cc(N2CC3(CCN(c4cnc5cnn(CC(F)F)c5n4)C3)C2)nc(C(F)(F)F)n1` [Cmpd 404], the EC50 was less than 10 µM.

In turn, `FC(F)Cn1ncc2ncc(N3CCC4(CN(c5cccc(OC(F)(F)F)n5)C4)C3)nc21` [Cmpd 405] had an EC50 of 10 to 50 µM.

The compound `FC(F)Cn1ncc2ncc(N3CCC4(CN(c5cccc(OC(F)F)n5)C4)C3)nc21` [Cmpd 406] gave an EC50 of 10 to 50 µM.

Compound `Fc1cc(Cl)cnc1N1CC2(CCN(c3cnc4cnn(CC(F)F)c4n3)C2)C1` [Cmpd 407] came in with an EC50 of 10 to 50 µM.

On to `Cc1cc(Cl)cnc1N1CC2(CCN(c3cnc4cnn(CC(F)F)c4n3)C2)C1` [Cmpd 408], for which the concentration giving a half-maximal response (EC50) lay in the range of 10 to 50 µM.

The compound `FC(F)Cn1ncc2ncc(N3CCC4(CN(c5cccc(OCC(F)(F)F)n5)C4)C3)nc21` [Cmpd 409] registered an EC50 of 10 to 50 µM.

The compound `COc1ncc(N2CC3(CCN(c4cnc5cnn(CC(F)F)c5n4)C3)C2)cn1` [Cmpd 410] returned an EC50 of 50 to 100 µM.

In the case of `FC(F)Cn1ncc2ncc(N3CCC4(CN(c5ccnc(OC(F)(F)F)c5)C4)C3)nc21` [Cmpd 411], the EC50 lay within 10 to 50 µM.

As for `FC(F)Cn1ncc2ncc(N3CCC4(CN(c5ccnc(OCC(F)(F)F)c5)C4)C3)nc21` [Cmpd 412], the EC50 lay within 10 to 50 µM.

For `O=S(=O)(c1cncc(C(F)(F)F)c1)N1CC2(CCN(c3cnc4cnn(CC(F)F)c4n3)C2)C1` [Cmpd 413], the EC50 is less than 10 µM.

`O=S(=O)(c1ccc(C(F)(F)F)nc1)N1CC2(CCN(c3cnc4cnn(CC(F)F)c4n3)C2)C1` [Cmpd 414] registered an EC50 of 10 to 50 µM.

In the case of `O=S(=O)(CCC(F)(F)F)N1CC2(CCN(c3cnc4cnn(CC(F)F)c4n3)C2)C1` [Cmpd 415], the EC50 lay in the range of 10 to 50 µM.

The compound `Cc1ccc(S(=O)(=O)N2CC3(CCN(c4cnc5cnn(CC(F)F)c5n4)C3)C2)cn1` [Cmpd 416] yielded an EC50 of 10 to 50 µM.

Turning to `Cc1cccc(S(=O)(=O)N2CC3(CCN(c4cnc5cnn(CC(F)F)c5n4)C3)C2)c1` [Cmpd 417], the EC50 is less than 10 µM.

Compound `O=S(=O)(c1cccc(Cl)c1)N1CC2(CCN(c3cnc4cnn(CC(F)F)c4n3)C2)C1` [Cmpd 418] returned an EC50 of less than 10 µM.

For `Cc1ccc(C(=O)N2CC3(CCN(c4cnc5cnn(CC(F)F)c5n4)C3)C2)cc1` [Cmpd 419], the EC50 lay within 10 to 50 µM.

In the case of `O=C(c1cc(Cl)cc(Cl)n1)N1CC2(CCN(c3cnc4cnn(CC(F)F)c4n3)C2)C1` [Cmpd 420], the EC50 lay within 10 to 50 µM.

Consider `O=C1CC2(CCN(c3cnc4cnn(CC(F)F)c4n3)CC2)CN1Cc1ccc(Cl)cc1F` [Cmpd 421], for which the EC50 is less than 10 µM.

On to `Cc1nc(N2CC3(CCN(c4cnc5cnn(CC(F)F)c5n4)C3)C2)cc(C(F)(F)F)n1` [Cmpd 422], for which the half-maximal effective concentration (EC50) is less than 10 µM.

As to `Cc1ncc(CN2CC3(CCN(c4cnc5cnn(CC(F)F)c5n4)CC3)CC2=O)s1` [Cmpd 423], the EC50 fell in the range of 10 to 50 µM.

Regarding `FC(F)(F)Cn1ncc2cnc(N3CCC4(CN(c5ccnc(C(F)(F)F)c5)C4)C3)nc21` [Cmpd 424], the concentration giving a half-maximal response (EC50) was less than 10 µM.

In the case of `FC(F)(F)c1cc(N2CC3(CCN(c4cncc(-c5nncs5)n4)C3)C2)ccn1` [Cmpd 425], the EC50 was in the range of 50 to 100 µM.

Turning to `FC(F)(F)Cn1ncc2ncc(N3CCC4(CN(c5cnc(C(F)(F)F)nc5)C4)C3)nc21` [Cmpd 426], the EC50 was in the range of 10 to 50 µM.

The compound `FC(F)(F)c1ncc(N2CC3(CCN(c4cnc5cnn(C6COC6)c5n4)C3)C2)cn1` [Cmpd 427] registered an EC50 of 10 to 50 µM.

Consider `Cc1nn(C2COC2)c2nc(N3CCC4(CN(c5cnc(C(F)(F)F)nc5)C4)C3)cnc12` [Cmpd 428], for which the EC50 is less than 10 µM.

In turn, `Cc1nn(CC(F)F)c2nc(N3CCC4(CN(c5cnc(C(F)(F)F)nc5)C4)C3)cnc12` [Cmpd 429] displayed an EC50 of more than 100 µM.

`FC(F)(F)c1ncc(N2CC3(CCN(c4cncc(-c5nncs5)n4)C3)C2)cn1` [Cmpd 430] displayed an EC50 of less than 10 µM.

With `FC(F)(F)Cn1ncc2cnc(N3CCC4(CN(c5cnc(C(F)(F)F)nc5)C4)C3)nc21` [Cmpd 432], the concentration for a half-maximal effect (EC50) was less than 10 µM.

`Cc1nn(CC(F)F)c2nc(N3CCC4(CN(c5cnc(C(F)(F)F)nc5)C4)C3)ncc12` [Cmpd 433]: the EC50 fell in the range of 10 to 50 µM.

Still in this experiment, the particulars now being: activation of GCase, EC50 ranges.
As to `FC(F)(F)c1ncc(N2CC3(CCN(c4ncc5cnn(C6COC6)c5n4)C3)C2)cn1` [Cmpd 434], the half-maximal effective concentration (EC50) was 10 to 50 µM.

`O=C(c1cccc(OC(F)F)c1)N1CC2(CCN(c3cnc4cnn(CC(F)F)c4n3)C2)C1` [Cmpd 435] registered an EC50 of less than 10 µM.

In turn, `FC(F)Cn1ncc2ncc(N3CCC4(CN(c5ccc(OCC(F)(F)F)nc5)C4)C3)nc21` [Cmpd 436] came in with an EC50 of 10 to 50 µM.

As to `Cc1cc(C(F)(F)F)cnc1N1CC2(CCN(c3cnc4cnn(CC(F)F)c4n3)C2)C1` [Cmpd 437], the EC50 lay within 50 to 100 µM.

Regarding `FC(F)Cn1ncc2ncc(N3CCC4(C3)CN(c3ncc(Cl)cn3)C4)nc21` [Cmpd 438], the EC50 was in the range of 10 to 50 µM.

As to `FC(F)Cn1ncc2ncc(N3CCC4(CN(c5cnc(OCC(F)(F)F)nc5)C4)C3)nc21` [Cmpd 439], the EC50 was 10 to 50 µM.

Regarding `FC(F)Cn1ncc2ncc(N3CCC4(CN(c5ccc(C(F)(F)F)nn5)C4)C3)nc21` [Cmpd 440], the EC50 was in the range of 50 to 100 µM.

For the compound `O=C1CC2(CCN(c3cnc4cnn(CC(F)F)c4n3)CC2)CN1Cc1ccc(OC(F)(F)F)cc1` [Cmpd 441], the half-maximal effective concentration (EC50) was less than 10 µM.

`O=C1CC2(CCN(c3cnc4cnn(CC(F)F)c4n3)CC2)CN1Cc1ccc(OC(F)F)cc1` [Cmpd 442] had an EC50 of less than 10 µM.

As to `O=C1CC2(CCN(c3cnc4cnn(CC(F)F)c4n3)CC2)CN1Cc1ccc(C(F)(F)F)cc1` [Cmpd 443], the EC50 is less than 10 µM.

`O=C1CC2(CCN(c3cnc4cnn(CC(F)F)c4n3)CC2)CN1Cc1ccc(F)cc1` [Cmpd 444]: the EC50 was less than 10 µM.

In turn, `O=C1CC2(CCN(c3cnc4cnn(CC(F)F)c4n3)CC2)CN1Cc1ccc(Cl)cc1` [Cmpd 445] had an EC50 of 10 to 50 µM.

`O=C1CC2(CCN(c3cnc4cnn(CC(F)F)c4n3)CC2)CN1Cc1ccc(C(F)(F)F)cc1F` [Cmpd 446] showed an EC50 of less than 10 µM.

Compound `O=C1CC2(CCN(c3cnc4cnn(CC(F)F)c4n3)CC2)CN1Cc1cc(F)ccc1F` [Cmpd 447] yielded an EC50 of less than 10 µM.

With `O=C1CC2(CCN(c3cnc4cnn(CC(F)F)c4n3)CC2)CN1Cc1ccc(Cl)c(F)c1` [Cmpd 448], the EC50 is less than 10 µM.

On to `O=C1CC2(CCN(c3cnc4cnn(CC(F)F)c4n3)CC2)CN1Cc1ccc(F)c(Cl)c1` [Cmpd 449], for which the EC50 is less than 10 µM.

`FC(F)Cn1ncc2ncc(N3CCC4(CN(c5ccc(OC(F)F)nc5)C4)C3)nc21` [Cmpd 450]: the EC50 was in the range of 10 to 50 µM.

The record behind these values is patent publication US20250034170A1, “SMALL MOLECULE MODULATORS OF GLUCOCEREBROSIDASE ACTIVITY AND USES THEREOF” (Vanqua Bio, Inc., priority 2021, published 2025).
